This is an account of results in ChEMBL document CHEMBL1140352, “Synthesis and structure-activity relationship of novel 6-aryl-1,4-dihydrobenzo[d][1,3]oxazine-2-thiones as progesterone receptor modulators leading to the potent and selective nonsteroidal progesterone receptor agonist tanaproget” (J Med Chem, 2005).

As a reminder, the EC50 is the concentration giving half of the maximal effect. Lower therefore signals higher potency in that assay. As usually defined, the IC50 is the point on the concentration scale where inhibition reaches its midpoint.

For one experiment, the system named is T47D. The experiment in a line: Effective concentration against alkaline phosphatase activity in human T47D breast carcinoma cell line. Type of experiment: functional, cell-based.
A further experiment addresses T1, Progesterone receptor (Homo sapiens, UniProt P06401).
T1 sequence (P06401 whole entry): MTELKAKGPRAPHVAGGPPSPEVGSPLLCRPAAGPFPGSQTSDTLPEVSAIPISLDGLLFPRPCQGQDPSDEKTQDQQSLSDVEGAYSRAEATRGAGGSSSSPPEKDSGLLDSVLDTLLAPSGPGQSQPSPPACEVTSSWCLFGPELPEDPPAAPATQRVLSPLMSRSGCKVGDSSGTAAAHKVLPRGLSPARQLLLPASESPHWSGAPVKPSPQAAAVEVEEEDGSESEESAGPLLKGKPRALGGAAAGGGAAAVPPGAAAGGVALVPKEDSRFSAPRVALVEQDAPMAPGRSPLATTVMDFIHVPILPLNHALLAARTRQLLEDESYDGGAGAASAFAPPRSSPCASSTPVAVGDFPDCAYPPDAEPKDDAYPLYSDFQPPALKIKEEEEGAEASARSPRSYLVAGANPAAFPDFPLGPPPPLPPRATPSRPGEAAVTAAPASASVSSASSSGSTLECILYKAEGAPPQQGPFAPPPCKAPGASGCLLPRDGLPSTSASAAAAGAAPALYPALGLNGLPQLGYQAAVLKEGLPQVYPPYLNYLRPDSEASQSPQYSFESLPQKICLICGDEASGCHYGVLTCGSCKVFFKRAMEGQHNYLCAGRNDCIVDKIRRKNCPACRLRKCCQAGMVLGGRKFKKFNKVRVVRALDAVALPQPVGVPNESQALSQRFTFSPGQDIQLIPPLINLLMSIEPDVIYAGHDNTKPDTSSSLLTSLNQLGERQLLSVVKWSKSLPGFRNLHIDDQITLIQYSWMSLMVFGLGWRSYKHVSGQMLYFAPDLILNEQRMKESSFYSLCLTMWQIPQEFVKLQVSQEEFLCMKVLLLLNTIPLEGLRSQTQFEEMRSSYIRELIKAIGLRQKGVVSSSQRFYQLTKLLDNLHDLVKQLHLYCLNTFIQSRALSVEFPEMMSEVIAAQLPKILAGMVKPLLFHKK
The experiment in a line: Inhibition of human progesterone receptor.

With `CCC1(CC)OC(S)=Nc2ccc(-c3ccc(C#N)n3C)cc21`, a half-maximal response in the experiment on T47D (EC50) required 0.1 nM.

In turn, `CC1(C)OC(=S)Nc2ccc(-c3ccc(C#N)[nH]3)cc21` registered an EC50 in the experiment with T47D of 0.15 nM.

Turning to `CC(C)n1c(=O)[nH]c2ccc(-c3cccc(Cl)c3)cc21`, inhibition against Progesterone receptor was half-maximal at 73 nM (IC50).

For `Cn1c(C#N)ccc1-c1ccc2c(c1)C(C)(C)OC(=O)N2`, in the experiment with T47D, the 50% effective concentration (EC50) turned out to be 1.1 nM.

As to `CC1(C)OC(S)=Nc2ccc(-c3csc(C#N)c3)cc21`, a half-maximal response with T47D (EC50) required 0.4 nM. The same measure, in the same setting: under `Cn1c(C#N)ccc1-c1ccc2c(c1)C1(CCC1)OC(S)=N2` stands 0.5 nM. The compound `CCC1(C)OC(S)=Nc2ccc(-c3ccc(C#N)n3C)cc21` (configuration not stated) came in with an EC50 in the experiment with T47D of 0.1 nM. Same read-out and setting: the same measure for `CC1Nc2ccc(-c3ccc(F)c(C#N)c3)cc2C(C)(C)O1` (configuration not stated): 23 nM; for `CC1(C)OC(S)=Nc2ccc(-c3coc(C#N)c3)cc21`: 1.2 nM; for `Cn1c(C#N)ccc1-c1ccc2c(c1)C(C)(C)OC(=S)N2` [TANAPROGET]: 0.15 nM.

The compound `CN1C(=S)OC(C)(C)c2cc(-c3ccc(C#N)[nH]3)ccc21` registered an EC50 in the experiment on T47D of 21.1 nM. In the experiment with T47D, `Cn1c(C#N)ccc1-c1ccc2c(c1)C(C)(c1cccs1)OC(S)=N2` (configuration not stated) registered an EC50 of 0.35 nM.
